For assay [1], the system named is human γ-globin promoter (EGFP reporter) in K562 cells. In words: HbF activation assay on K562 (EGFP/RFP reporter model system for screening of inducers of fetal hemoglobin). The conditions noted are these: 60 hours. It counts as cell-based. The text has this: In order to test several compounds, a model system was produced based on previous findings present in the literature. The K562 erythroid-like cell lines, isolated and characterized by Lozzio & Lozzio (Blood, 45(3), pp 321-334) from a patient with chronic myelogenous leukemia in blast crisis, have been extensively employed as a useful in vitro model to study the molecular mechanism(s) regulating the expression of embryonic and fetal human globin genes, as well as for screening of new differentiation-inducing compounds. A stable cell line where reporter genes encoding green EGFP and far-red fluorescent protein red-FP are placed under the control of the human γ-globin or β-globin promoters respectively was used (see Vadolas et al, Hum. Mol. Genet. 2004, 13, 2, 223-233 for details). The modified 3-cluster also contains the upstream regulatory region called LCR. This cell line grows in suspension at 37° C. and 5% CO2 in humidified atmosphere in the following medium: DMEM, 10% foetal bovine serum, glutamine and antibiotics (penicillin and streptomycin);
The assay procedures is as follows: • Single concentration compounds or serially diluted samples are transferred to an empty assay plates by a spotter (ATS-100, EDC Biosystems, USA) in order to have a final concentration of DMSO of 0.25% in 50 μL of cell culture. Source plats contains compounds dissolved in 100% DMSO • Black, transparent bottom, 384 wells, tissue culture treated plates are used as assay plates. • Assay plates containing spotted compounds are filled with a suspension of cell in the described assay medium. The final cell concentration is of 1000 cells per well. • Cells are incubated in humidified atmosphere, 37° C.-5% CO2, for 60 hours • Cell nuclei are stained by adding 10 ul (6 μM; 1 μM final) Hoechst 33342 (Life Technologies, USA) • The cell associated intensity is read by a plate based cytometer (ACUMEN explorer, TTP Labtech, UK) • The nuclei count is used to assess the cell proliferation/death and to normalize the total EGFP/RFP intensity. HbF Activation Assay in Human Cell Line K562
The compounds of the invention were tested in the HbF activation assay on K562, as model system for screening of potential inducers of fetal hemoglobin.

The target of assay [2] is T1, HDAC1 (Homo sapiens, UniProt Q13547).
T1 construct: made in house
T1 sequence (Q13547 whole entry): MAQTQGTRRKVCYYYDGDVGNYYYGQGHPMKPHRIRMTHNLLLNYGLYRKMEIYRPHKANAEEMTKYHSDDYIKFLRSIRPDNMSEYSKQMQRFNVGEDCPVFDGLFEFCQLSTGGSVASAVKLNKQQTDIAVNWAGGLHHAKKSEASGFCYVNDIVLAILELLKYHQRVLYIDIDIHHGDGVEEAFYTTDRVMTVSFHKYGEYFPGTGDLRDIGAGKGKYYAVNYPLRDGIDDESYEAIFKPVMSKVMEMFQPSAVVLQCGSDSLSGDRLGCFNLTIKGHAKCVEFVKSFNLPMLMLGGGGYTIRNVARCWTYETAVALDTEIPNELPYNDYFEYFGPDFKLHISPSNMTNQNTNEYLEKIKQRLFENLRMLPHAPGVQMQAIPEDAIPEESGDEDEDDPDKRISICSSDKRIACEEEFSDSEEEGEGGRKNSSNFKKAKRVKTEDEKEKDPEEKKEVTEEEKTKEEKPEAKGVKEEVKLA
In words: HDAC1 assay (Fluor-de-Lys fluorescent deacetylase assay). It counts as biochemical. The conditions noted are these: read-out: hHDAC IC50. On the procedure: The HDAC1 assay is used to quantify the histone deacetylase (HDAC) activity. The assay is performed in 384 well microtiter plates by pre-incubating serial dilutions of the compounds with a fixed concentration of HeLa nuclear extract or purified HDAC1 and then adding an acetylated lysine-containing substrate/developer that fluoresces upon deacetylation.
Reagents of the HDAC Fluorescent Activity Assay are purchased from BioMol Research Laboratories (Plymouth Meeting, Pa.) and feature the Fluor-de-Lys™ Substrate/Developer System.
TSA Stock: TSA is provided as a 10 mM stock solution in 100% dimethylsulfoxide (DMSO). […] The final concentration in the assay is 20 uM.
3 uM [final] TSA to this solution increases its ability to stop the reaction.
HDAC1 Working Solution: The HDAC1 enzyme is diluted in assay buffer prior to each use from a fresh aliquot of enzyme. The final concentration in the assay is 1-2 nM.
Compounds: Test compounds are directly transferred from a 100% DMSO solution into assay plates by spotting nanoliters of solutions by an acoustic dispenser (ATS-100, EDC biosystems, US).
HeLa cells transiently transfected with pCDNA3-HDAC1-FLAG are grown to 80% confluence on 10 cm culture dishes in DMEM, 10% Fetal bovine serum supplemented with antibiotics and glutamine. Cells are washed with 10 ml cold PBS and scraped into 2 ml of PBS. Cells are centrifuged for 5 minutes at 800×g at 4° C., washed with 30 ml PBS and resuspended in 10 ml PBS, counted, re-centrifuged and frozen at −80° C.
The frozen cell pellet is re-suspended in 1 ml of hypotonic lysis buffer (LB: 20 mM Hepes pH7.9, 0.25 mM EDTA, 10% glycerol) containing COMPLETE protease inhibitor and incubated on ice for 15 minutes, followed by homogenization on a 2-ml DounceB homogenizer (25 strokes). 150 mM KCl and 0.5% NP-40 are added to the homogenate and the solution is sonicated twice for 30 seconds (output5/6, duty cycle 90) and incubated for 1 hour at 4° C. After a 30 minutes centrifugation at 12000 rpm and 4° C. the supernatant (soluble extract) is collected and protein concentration is determined using the BIORAD assay.
Anti-FLAG M2 affinity resin (Sigma) is washed three times with TBS and twice with LB. 10 μl of the LB-washed resin/mg of protein (2-3 ug of Flagged-HDAC1) are added to the soluble extract (1 mL) and incubated overnight at 4° C. with gentle mixing. The resin is then collected by centrifugation, washed once with LB, twice with LB+0.1% NP40 and twice with elution buffer (50 mM Hepes pH 7.4, 5% glycerol, 100 mM KCl, 0.01% Triton X-100).
The concentration of purified HDAC is determined by Western blot analysis.

In assay [3] the test system is HDAC in Hela cells. In words: HDAC Hela Cell Based assay.

Experimental findings from patent US9371295B2, “Compounds for use in the treatment of disorders that are ameliorated by inhibition of HDAC” (IRBM—Science Park S.p.A., priority 2012, dated 2016) are described below.

Usually EC50 stands for the concentration needed to bring the measured effect to its halfway point. A higher EC50 goes with a need for much substance. A word on the IC50: it is the point on the concentration scale where inhibition reaches its midpoint.

In turn, `CCC(=O)CCCCC[C@H](NC(=O)Cc1c(C)[nH]c2ccc(OC)cc12)c1ncc(-c2cc3ccccc3nc2OC)o1` [Compound 1, (S)-2-(5-methoxy-2-methyl-1H-indol-3-yl)-N-(1-(5-(2-methoxyquinolin-3-yl)oxazol-2-yl)-7-oxononyl)acetamide] had a concentration giving a half-maximal response (EC50) in assay [1] greater than 1 µM. The concentration for half-maximal inhibition (IC50) in assay [2] was less than 0.1 µM; in assay [3] it was 0.1 to 1 µM.
Compound `CCC(=O)CCCCC[C@H](NC(=O)C1CCN(C)CC1)c1ncc(-c2ccccc2)o1` [Compound 3, (S)-1-methyl-N-(7-oxo-1-(5-phenyloxazol-2-yl)nonyl)piperidine-4-carboxamide] showed an EC50 in assay [1] greater than 1 µM. The half-inhibitory concentration (IC50) in assay [2] was less than 0.1 µM; in assay [3] it was greater than 1 µM.
For the compound `CCC(=O)CCCCC[C@H](NC(=O)Cc1c(C)[nH]c2ccc(OC)cc12)c1ncc(-c2ccccc2)o1` [Compound 4, (S)-2-(5-methoxy-2-methyl-1H-indol-3-yl)-N-(7-oxo-1-(5-phenyloxazol-2-yl)nonyl)acetamide], the EC50 in assay [1] was greater than 1 µM. For the same compound, the IC50 was less than 0.1 µM in assay [2] and greater than 1 µM in assay [3].
Take `CCC(=O)CCCCC[C@H](NC(=O)C1CCN(C)CC1)c1ncc(-c2cccc3c2OCCO3)o1` [Compound 5]: the EC50 in assay [1] was greater than 1 µM. Also, the IC50 was less than 0.1 µM in assay [2] and greater than 1 µM in assay [3].
In the case of `CCC(=O)CCCCC[C@H](NC(=O)c1cncs1)c1ncc(-c2ccccc2)o1` [Compound 6, (S)-N-(7-oxo-1-(5-phenyloxazol-2-yl)nonyl)thiazole-5-carboxamide], in assay [1], the EC50 is greater than 1 µM. The concentration for half-maximal inhibition (IC50) in assay [2] was less than 0.1 µM; in assay [3], greater than 1 µM.
`CCC(=O)CCCCC[C@H](NC(=O)CCN(C)C)c1ncc(-c2ccccc2)o1` [Compound 7, (S)-3-(dimethylamino)-N-(7-oxo-1-(5-phenyloxazol-2-yl)nonyl)propanamide] yielded an EC50 in assay [1] greater than 1 µM. The results for the IC50 in assay [2] and in assay [3] were less than 0.1 µM and greater than 1 µM, respectively.
`CCC(=O)CCCCC[C@H](NC(=O)C1CCN(C)C1)c1ncc(-c2ccccc2)o1` (stereo partly drawn) [Compound 8, 1-methyl-N-((S)-7-oxo-1-(5-phenyloxazol-2-yl)nonyl)pyrrolidine-3-carboxamide]: the EC50 in assay [1] is greater than 1 µM. Besides, the results for the half-inhibitory concentration (IC50) in assay [2] and in assay [3] were less than 0.1 µM and greater than 1 µM, respectively.
Consider `CCC(=O)CCCCC[C@H](NC(=O)C(C)(C)N(C)C)c1ncc(-c2ccccc2)o1` [Compound 9, (S)-2-(dimethylamino)-2-methyl-N-(7-oxo-1-(5-phenyloxazol-2-yl)nonyl)propanamide], for which the 50% effective concentration (EC50) in assay [1] was greater than 1 µM. Further, the IC50 in assay [2] was less than 0.1 µM; in assay [3] it was greater than 1 µM.
`CCC(=O)CCCCC[C@H](NC(=O)[C@@H]1CSC(=O)N1)c1ncc(-c2ccccc2)o1` [Compound 13, (R)-2-oxo-N-((S)-7-oxo-1-(5-phenyloxazol-2-yl)nonyl)thiazolidine-4-carboxamide] showed an EC50 in assay [1] greater than 1 µM. Besides, the concentration for half-maximal inhibition (IC50) is less than 0.1 µM in assay [2] and greater than 1 µM in assay [3].
With `CCC(=O)CCCCC[C@H](NC(=O)c1ccnc(Cl)c1)c1ncc(-c2ccccc2)o1` [Compound 14, (S)-2-chloro-N-(7-oxo-1-(5-phenyloxazol-2-yl)nonyl)isonicotinamide], the half-maximal effective concentration (EC50) in assay [1] was greater than 1 µM. Further, the IC50 is 0.1 to 1 µM in assay [2] and greater than 1 µM in assay [3].
Compound `CCC(=O)CCCCC[C@H](NC(=O)CN1CCN(C)CC1)c1ncc(-c2ccccc2)o1` [Compound 15, (S)-2-(4-methylpiperazin-1-yl)-N-(7-oxo-1-(5-phenyloxazol-2-yl)nonyl)acetamide] registered an EC50 in assay [1] greater than 1 µM. The IC50 in assay [2] was 0.1 to 1 µM; in assay [3], greater than 1 µM.
`CCC(=O)CCCCC[C@H](NC(=O)Cn1c(C)nc2ccccc21)c1ncc(-c2ccccc2)o1` [Compound 18, (S)-2-(2-methyl-1H-benzo[d]imidazol-1-yl)-N-(7-oxo-1-(5-phenyloxazol-2-yl)nonyl)acetamide]: the half-maximal effective concentration (EC50) in assay [1] is greater than 1 µM. Moreover, the IC50 in assay [2] is 0.1 to 1 µM; in assay [3] it was greater than 1 µM.
`CCC(=O)CCCCC[C@H](NC(=O)C1CCCCCN1C)c1ncc(-c2ccccc2)o1` (stereo partly drawn) [Compound 21, 1-methyl-N-((S)-7-oxo-1-(5-phenyloxazol-2-yl)nonyl)azepane-2-carboxamide]: the EC50 in assay [1] was greater than 1 µM. Besides, the values for the IC50 in assay [2] and in assay [3] were 0.1 to 1 µM and greater than 1 µM, respectively.
Turning to `CCC(=O)CCCCC[C@H](NC(=O)CCC1CCCN(C)C1)c1ncc(-c2ccccc2)o1` (stereo partly drawn) [Compound 25, 3-(1-methylpiperidin-3-yl)-N-((S)-7-oxo-1-(5-phenyloxazol-2-yl)nonyl)propanamide], the half-maximal effective concentration (EC50) in assay [1] was greater than 1 µM. Besides, the half-inhibitory concentration (IC50) is 0.1 to 1 µM in assay [2] and greater than 1 µM in assay [3].
Regarding `CCC(=O)CCCCC[C@H](NC(=O)CCn1c(CC)nc2ccccc21)c1ncc(-c2ccccc2)o1` [Compound 26, (S)-3-(2-ethyl-1H-benzo[d]imidazol-1-yl)-N-(7-oxo-1-(5-phenyloxazol-2-yl)nonyl)propanamide], the concentration giving a half-maximal response (EC50) in assay [1] is greater than 1 µM. The IC50 is 0.1 to 1 µM in assay [2] and greater than 1 µM in assay [3].
`CCC(=O)CCCCC[C@H](NC(=O)CCn1c(CC)nc2ccccc21)c1ncc(-c2cc3ccccc3nc2OC)o1` [Compound 29, (S)-3-(2-ethyl-1H-benzo[d]imidazol-1-yl)-N-(1-(5-(2-methoxyquinolin-3-yl)oxazol-2-yl)-7-oxononyl)propanamide]: the EC50 in assay [1] was 0.1 to 1 µM. For the same compound, the half-inhibitory concentration (IC50) in assay [2] and in assay [3] was less than 0.1 µM each time.
On to `CCC(=O)CCCCC[C@H](NC(=O)C1CN(C)C1)c1ncc(-c2ccccc2)o1` [Compound 32, (S)-1-methyl-N-(7-oxo-1-(5-phenyloxazol-2-yl)nonyl)azetidine-3-carboxamide], for which the EC50 in assay [1] is greater than 1 µM. The IC50 is less than 0.1 µM in assay [2] and greater than 1 µM in assay [3].
In the case of `CCC(=O)CCCCC[C@H](NC(=O)C1CCN(C)C1)c1ncc(-c2cc3ccccc3nc2OC)o1` (stereo partly drawn) [Compound 34, N-((S)-1-(5-(2-methoxyquinolin-3-yl)oxazol-2-yl)-7-oxononyl)-1-methylpyrrolidine-3-carboxamide], the EC50 in assay [1] was 0.1 to 1 µM. For the same compound, the IC50 in assay [2] was less than 0.1 µM; in assay [3] it was 0.1 to 1 µM.
Regarding `CCC(=O)CCCCC[C@H](NC(=O)c1cncs1)c1nnc(-c2cc3ccccc3nc2OC)o1` [Compound 49, (S)-N-(1-(5-(2-methoxyquinolin-3-yl)-1,3,4-oxadiazol-2-yl)-7-oxononyl)thiazole-5-carboxamide], the EC50 in assay [1] was greater than 1 µM. In assay [3], this compound came in with a half-maximal inhibitory concentration (IC50) of 0.1 to 1 µM.
